In data set [1] the test system is plasma glucose concentration. Briefly: Hypoglycaemic effect (plasma glucose) after intravenous INS, PK-PD indirect response modelling. Type of data set: in vivo, rat. The source says:
An indirect response model was used to analyse the PK–PD relationship. The differential equation for the INS stimulus of the model is as follows:5 dGlc/dt=KGin-1+Smax∙SIG^γ/SC50^γ+SIG^γkGout∙Glc, where Glc is the plasma glucose concentration (mg/dL), SIG is the theoretical signal strength concerned with the hypoglycaemic effect of INS, Smax is the maximum effect, SC50 is the SIG producing 50% of Smax, r is Hill’s constant, KGin is the zero-order rate constant concerned with endogenous glucose production, and kGout is the first-order rate constant (min^−1) concerned with glucose elimination. Before INS is administered, the observed baseline level of Glc is maintained as G00 (105.12 mg/dL), which is determined by KGin = kGout.G00. Equation (5) can comprehensively express the mechanism of action of INS that is not assumed in the following model.
To assess the contribution of the receptor-binding process of INS to the hypoglycaemic effect, the INS receptor-based PK–PD model (IR model) was designed as follows:6 ϕ=CIns∙100/Kd+CIns-ϕ00.
We assumed that SIG is equal to the value of Φ in this model. To evaluate the contribution of the translocation process to the hypoglycaemic effect, the GLUT4 translocation-based PK–PD model (GT model) was designed as follows:7 dG4A/dt=α∙CIns-C00-G4A/TAB, 8 dG4B/dt=G4A/TAB-G4B/TBA. […]

For data set [2], the system named is INS receptors, rat soleus muscle cells. To be noted: fixed value in the IR model, read-out: dissociation constant (Kd); cited from earlier work. The source says:
In the post-prandial state, the uptake of glucose from the blood in vivo mainly occurs in skeletal muscle, which expresses INS receptors. […] Although there are various kinds of skeletal muscle in the body, it would not be useful to individually model each receptor in all skeletal muscles, because this complicates the model. […] We assumed that SIG is equal to the value of Φ in this model. To evaluate the contribution of the translocation process to the hypoglycaemic effect, the GLUT4 translocation-based PK–PD model (GT model) was designed as follows:7 dG4A/dt=α∙CIns-C00-G4A/TAB, 8 dG4B/dt=G4A/TAB-G4B/TBA. || page 3: Parameters Estimated values Pharmacokinetic parameters k12 (min-1) 0.843 ± 0.25 k (min-1) 0.419 ± 0.073 21 k10 (min-1) 0.000314 ± 0.0079 Km (ng/kg) 1538 ± 624 Vmax (ng/kg/min) 3243 ± 649 Vc (mL/kg) 29.3 ± 6.6 Pharmacodynamic parameters of the IR model Kd (nmol/L) 2.062 FIX SC50IR (%) 7.60 ± 1.8 SmaxIR 3.01 ± 0.31 γ 2.25 ± 1.8 IR kGoutIR (min-1) 0.0208 ± 0.0018 Pharmacodynamic parameters of the GT model α 0.153 ± 0.56 T (min) 3 FIX AB TBA (min) 20 FIX SC50GT 100.22 ± 354 SmaxGT 2.58 ± 1.3 γGT 0.736 ± 0.11 kGoutGT (min-1) 0.141 ± 0.021 Supplementary Table S1. Pharmacokinetic and pharmaco ...

The conditions of data set [3]: rat, in vivo, iv; SD.
Procedure: Animal experiments were performed following the procedures as described earlier[26], with slight adaptations. In short, male Wistar rats (Japan SLC, Shizuoka, Japan) weighing 270–320 g were used in this study. Rats were housed in controlled environmental facilities (temperature: 24 ± 1 °C, humidity: 55% ± 10%) under a 12:12-h light–dark cycle (06:00 h/18:00 h) for more than 1 week and allowed free access to a standard diet and tap water. One day before the experiment, rats were anaesthetized with ethyl ether and implanted surgically with a phycon tube connected to a PE50 catheter in the jugular vein for drug administration and another phycon-PE50 catheter in the femoral vein for blood sampling. Both catheters were externalized through the back in the neck region and secured. Unless otherwise specified, all animal experiments were conducted without restraint or anaesthesia and in a fasted state. On the day of the experiment, each rat was housed in an individual cage and left alone for at least 1 h. INS was dissolved in a 0.1% bovine serum albumin solution. Pulsatile administration of INS was performed by repeated intravenous bolus injections at constant intervals of 6–60 min within 2 h (total dose: 0.5 IU/kg). As controls, a single bolus injection or 2-h infusion were also conducted at doses of 0.5 IU/kg and 0.25 IU/kg/h, respectively. INS (0.025–0.5 IU/kg) was intravenously injected to estimate PK and PD parameters. Blood samples (≤ 0.1 mL) were withdrawn from the femoral vein before and at designated times after dosing. The blood samples were transferred to heparinized tubes, then centrifuged (12,000 × g, 5 min). The isolated plasma was stored frozen at − 20 °C until analysis. Immunoreactive INS concentrations in plasma were determined using an enzyme-linked immunosorbent assay (ELISA) kit (Shibayagi, Gunma, Japan). The mutarotase glucose oxidase method kit (Wako Pure Chemical Industries, Osaka, Japan) was used to measure plasma glucose concentrations. […]
The concentration–time data were analysed by the nonlinear regression program FKDM[27]. […]

Results on one substance are retold here after paper PMC7608663, “Pharmacokinetic–pharmacodynamic modelling of the hypoglycaemic effect of pulsatile administration of human insulin in rats” (Scientific Reports, 2020).

In general, Kd refers to the concentration at which binding is half-saturated.

Human recombinant INS (Humulin R): in data set [1] (after single i.v. bolus administration, rats (Fig. 3)), the “time required for the maximal hypoglycaemic effect” value is “about 20 min”. Besides, the “area between the effect-time curve and the basal concentration (AUE), pulsatile administration compared with single bolus” value in data set [1] (total 0.5 IU/kg i.v. within 2 h, 2-20 pulses vs bolus 0.5 IU/kg, rats, depends on pulse rate, saturated above four injections, Dunnett's test, n = 3-4) is “significantly higher”. Moreover, in data set [2], the Kd was 2.06 nM. For the same substance, in data set [3], the “Km, Michaelis-Menten kinetic constant of elimination” value is 1538 ± 624 ng/kg; the “Vc, volume of distribution for the central (plasma) INS compartment” value was determined as 0.0293 ± 0.0066 L/kg; the “Vmax, Michaelis-Menten kinetic constant of elimination” value was 3243 ± 649 ng/kg/min.
